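Each compound was tested at five concentrations against cells in 96-well plates for 48 hours. GI50 marks 50% less growth.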 Activity calls are given as the source filed them. Cut-off read from the data, not from the text of the source: active = GI50 up to about 1.1 µM and inactive = higher.
Assays:
Assay in all cases: DTP human tumour cell line panel, 48 h
DMS-273 = tested on: DMS-273
SN12C = tested on: SN12C
NCI-H23 = tested on: NCI-H23
SNB-75 = tested on: SNB-75
SW-620 = tested on: SW-620
SF-268 = tested on: SF-268
TK-10 = tested on: TK-10
HL-60 = tested on: HL-60
M14 = tested on: M14
CCRF-CEM = tested on: CCRF-CEM
786-0 = tested on: 786-0
KM12 = tested on: KM12
SF-295 = tested on: SF-295
OVCAR-4 = tested on: OVCAR-4
UO-31 = tested on: UO-31
SK-MEL-2 = tested on: SK-MEL-2

O=C(Cc1ccccc1)NN1C(=O)C(Cl)C1c1cc(Br)ccc1O (stereo unspecified)
GI50 (DMS-273): 5.19 µM (inactive) | GI50 (SN12C): 7.29 µM (inactive) | GI50 (NCI-H23): 4.43 µM (inactive) | GI50 (SNB-75): 10.4 µM (inactive) | GI50 (SW-620): 4.11 µM (inactive) | GI50 (SF-268): 1.95 µM (inactive) | GI50 (TK-10): 21.6 µM (inactive) | GI50 (HL-60): 2.46 µM (inactive) | GI50 (M14): 4.34 µM (inactive) | GI50 (CCRF-CEM): 0.755 µM (active) | GI50 (786-0): 5.89 µM (inactive) | GI50 (KM12): 9.48 µM (inactive) | GI50 (SF-295): 6.19 µM (inactive) | GI50 (OVCAR-4): 2.21 µM (inactive) | GI50 (UO-31): 7.45 µM (inactive) | GI50 (SK-MEL-2): 3.05 µM (inactive)

O=C(/C=C/c1ccccc1Cl)c1cccc2ccccc12
GI50 (DMS-273): 13.4 µM (inactive) | GI50 (SN12C): 48.6 µM (inactive) | GI50 (NCI-H23): 12.6 µM (inactive) | GI50 (SNB-75): 6.97 µM (inactive) | GI50 (SW-620): 1.88 µM (inactive) | GI50 (SF-268): 12.9 µM (inactive) | GI50 (TK-10): 15.8 µM (inactive) | GI50 (HL-60): 10.4 µM (inactive) | GI50 (M14): 16.3 µM (inactive) | GI50 (CCRF-CEM): 4.82 µM (inactive) | GI50 (786-0): 5.15 µM (inactive) | GI50 (KM12): 5.24 µM (inactive) | GI50 (SF-295): 12.5 µM (inactive) | GI50 (OVCAR-4): 4.81 µM (inactive) | GI50 (UO-31): 9.2 µM (inactive) | GI50 (SK-MEL-2): 18.4 µM (inactive)

Cc1cc(Cl)cc2c1NC(=O)C2(O)CC(=O)c1ccc(F)cc1 (stereo unspecified)
GI50 (DMS-273): 77.3 µM (inactive) | GI50 (SN12C): 27.2 µM (inactive) | GI50 (NCI-H23): 61.1 µM (inactive) | GI50 (SNB-75): 26.5 µM (inactive) | GI50 (SW-620): 94 µM (inactive) | GI50 (SF-268): 67 µM (inactive) | GI50 (TK-10): > 100 µM (inactive) | GI50 (M14): 88.5 µM (inactive) | GI50 (786-0): 27 µM (inactive) | GI50 (KM12): > 100 µM (inactive) | GI50 (SF-295): 53.8 µM (inactive) | GI50 (OVCAR-4): 41.9 µM (inactive) | GI50 (UO-31): 47.6 µM (inactive) | GI50 (SK-MEL-2): 73.3 µM (inactive)

O=C1CC2CCCC23CC2(CCN13)OCCO2 (stereo unspecified)
GI50 (DMS-273): > 100 µM (inactive) | GI50 (SN12C): > 100 µM (inactive) | GI50 (NCI-H23): > 100 µM (inactive) | GI50 (SNB-75): > 100 µM (inactive) | GI50 (SW-620): > 100 µM (inactive) | GI50 (SF-268): > 100 µM (inactive) | GI50 (TK-10): > 100 µM (inactive) | GI50 (HL-60): > 100 µM (inactive) | GI50 (M14): > 100 µM (inactive) | GI50 (CCRF-CEM): > 100 µM (inactive) | GI50 (786-0): > 100 µM (inactive) | GI50 (KM12): > 100 µM (inactive) | GI50 (SF-295): > 100 µM (inactive) | GI50 (OVCAR-4): > 100 µM (inactive) | GI50 (UO-31): > 100 µM (inactive) | GI50 (SK-MEL-2): > 100 µM (inactive)

COC(=O)[C@@H](C)[C@H]1CC[C@@](C)(CCC2=C(C)CC3C=C(C)CCC3C2(C)C)OO1 (stereo partly specified)
GI50 (DMS-273): 2.18 µM (inactive) | GI50 (SN12C): 1.06 µM (active) | GI50 (NCI-H23): 1.7 µM (inactive) | GI50 (SNB-75): 1.57 µM (inactive) | GI50 (SW-620): 0.277 µM (active) | GI50 (SF-268): 1.85 µM (inactive) | GI50 (TK-10): 1.91 µM (inactive) | GI50 (HL-60): 0.212 µM (active) | GI50 (M14): 1.73 µM (inactive) | GI50 (CCRF-CEM): 0.165 µM (active) | GI50 (786-0): 0.117 µM (active) | GI50 (KM12): 1.42 µM (inactive) | GI50 (SF-295): 1.79 µM (inactive) | GI50 (OVCAR-4): 1.52 µM (inactive) | GI50 (UO-31): 1.45 µM (inactive) | GI50 (SK-MEL-2): 1.59 µM (inactive)

Cc1cc(C)c2[s+]snc2c1
GI50 (DMS-273): 47.1 µM (inactive) | GI50 (SN12C): 47.1 µM (inactive) | GI50 (NCI-H23): 54 µM (inactive) | GI50 (SNB-75): > 100 µM (inactive) | GI50 (SW-620): 37.6 µM (inactive) | GI50 (SF-268): 60.5 µM (inactive) | GI50 (TK-10): > 100 µM (inactive) | GI50 (HL-60): 18.3 µM (inactive) | GI50 (M14): 37.8 µM (inactive) | GI50 (CCRF-CEM): 28.5 µM (inactive) | GI50 (786-0): > 100 µM (inactive) | GI50 (KM12): 95.7 µM (inactive) | GI50 (SF-295): > 100 µM (inactive) | GI50 (OVCAR-4): > 100 µM (inactive) | GI50 (UO-31): 39.5 µM (inactive) | GI50 (SK-MEL-2): 75 µM (inactive)

COc1ccc(C(=O)C#Cc2cnc(O)nc2O)cc1
GI50 (DMS-273): 14.9 µM (inactive) | GI50 (SN12C): 6.32 µM (inactive) | GI50 (NCI-H23): 14.6 µM (inactive) | GI50 (SNB-75): 23.8 µM (inactive) | GI50 (SW-620): 5.69 µM (inactive) | GI50 (SF-268): 21.1 µM (inactive) | GI50 (TK-10): 9.31 µM (inactive) | GI50 (HL-60): 5.21 µM (inactive) | GI50 (M14): 5.85 µM (inactive) | GI50 (CCRF-CEM): 2.52 µM (inactive) | GI50 (786-0): 9.06 µM (inactive) | GI50 (KM12): 18.7 µM (inactive) | GI50 (SF-295): 33 µM (inactive) | GI50 (OVCAR-4): 16.8 µM (inactive) | GI50 (UO-31): 17.2 µM (inactive) | GI50 (SK-MEL-2): 7.46 µM (inactive)

COc1ccc(CCc2cc(OC)cc(OC)c2)cc1
GI50 (DMS-273): 5.15 µM (inactive) | GI50 (SN12C): 45.9 µM (inactive) | GI50 (NCI-H23): 24.2 µM (inactive) | GI50 (SNB-75): 32.9 µM (inactive) | GI50 (SW-620): 5.93 µM (inactive) | GI50 (SF-268): 39.4 µM (inactive) | GI50 (TK-10): 54.2 µM (inactive) | GI50 (HL-60): 8.69 µM (inactive) | GI50 (M14): 25.2 µM (inactive) | GI50 (CCRF-CEM): 15.6 µM (inactive) | GI50 (786-0): 47.1 µM (inactive) | GI50 (KM12): 4.92 µM (inactive) | GI50 (SF-295): 22.6 µM (inactive) | GI50 (OVCAR-4): 27 µM (inactive) | GI50 (UO-31): 52.7 µM (inactive) | GI50 (SK-MEL-2): 11.1 µM (inactive)

CC[C@@]1(O)C(=O)OCc2c1cc1n(c2=O)Cc2cc3c(OC)cccc3nc2-1
GI50 (DMS-273): < 0.01 µM (active) | GI50 (SN12C): < 0.1 µM (active) | GI50 (NCI-H23): < 0.1 µM (active) | GI50 (SNB-75): 0.0622 µM (active) | GI50 (SW-620): 0.196 µM (active) | GI50 (SF-268): < 0.1 µM (active) | GI50 (TK-10): 3.74 µM (inactive) | GI50 (HL-60): < 0.01 µM (active) | GI50 (M14): 0.2 µM (active) | GI50 (CCRF-CEM): < 0.01 µM (active) | GI50 (786-0): 0.211 µM (active) | GI50 (KM12): 0.867 µM (active) | GI50 (SF-295): < 0.1 µM (active) | GI50 (OVCAR-4): 1.06 µM (active) | GI50 (SK-MEL-2): 0.834 µM (active)

Source: ChEMBL document CHEMBL1201862, “PubChem BioAssay data set” (2004)
